# Measured values published in patent publication US6156789A, “Method for treating abnormal cell proliferation in the brain” (Rhone-Poulenc Rorer S.A., priority 1998, dated 2000).
# Read-outs that look alike come from different tables or passages of the source.
# Assay: Tissue distribution of Compound A in mice with mammary C/16 adenocarcinomas (first method: liver, heart, kidney, lung, spleen, tumor)
# Type: in vivo, C3H/HeN female mice
# Conditions: for Kp at 1 h / Kp at 14 h / half-life / Tmax / Kp at 0.033 h / Kp at 0.083 h / Kp at 0.25 h / Kp at 4 h / Kp at 0.5 h / Kp at 24 h / Kp at 0.75 h: mouse, iv; for Kp at 0.5 h: 0.50 h
# Experimental: Mammary C/16 adenocarcinomas were implanted in C3H/HeN female mice. At least 7 days later, 4α,10β-diacetoxy-2α-benzoyloxy-5β,20-epoxy-1β-hydroxy-7β,8β-methylene-9-oxo-19-nor-11-taxen-13α-yl (2R,3S)-3-tert-butoxycarbonylamino-2-hydroxy-3-phenylpropionate ("Compound A") was administered to groups of female mice at doses of 9.5, 15.4, 24.8, 40 or 60.5 mg/kg by intravenous injection under 0.4 or 0.5 ml/injection over 15 seconds. The body weight and date of implantation were recorded for each mouse. Blood and tissue samples were taken 2, 5, 15, 30 and 45 minutes and 1, 4, 14, 24 and 48 hours, after administration. The plasma was separated from the blood samples at 4° C. and frozen immediately. The tissue and tumors were weighed and frozen immediately (-20° C.).
# The plasma and tissue samples were then analyzed for the concentration of Compound A. The plasma was assayed by high pressure liquid chromatography with spectrophotometric detection. For the tissue, liver, heart, kidney, lung, spleen and tumor tissue, samples were assayed by a first method, while a second method was used for the brain tissue analyzed. In the first method, 0.2 g of tissue was combined with 2 ml of sodium phosphate buffer 0.1 M (pH:7) and homogenized. The homogenate was centrifuged and 0.5 ml of supernatant was injected into the chromatographic column. In the second method, 10 μl of standard solution was combined with 0.2 g of brain tissue. 2 ml of methanol/5% perchloric acid (50/50) were added and the mixture was homogenized. The homogenate was centrifuged and 100 μl of supernatant was injected into the chromatographic column.
# [1] = kidney/plasma, 40 mg/kg, 40 μg/kg [sic], mice with tumors, single mice, read-out: Tissue/Plasma Ratio, KIDNEY
# [2] = liver/plasma, 40 mg/kg, mice with tumors, single mice, read-out: Tissue/Plasma Ratio, LIVER
# [3] = lung/plasma, 40 mg/kg, 40 μg/kg [sic], mice with tumors, single mice, read-out: Tissue/Plasma Ratio, LUNG
# [4] = spleen/plasma, 40 mg/kg, mice with tumors, single mice, read-out: Tissue/Plasma Ratio, SPLEEN
# [5] = tumor/plasma, 40 mg/kg, mice with tumors, single mice, read-out: Tissue/Plasma Ratio, TUMOR
# [6] = tumor/plasma, dose 9.5, single mice, read-out: Tumor/Plasma Ratio
# [7] = tumor/plasma, dose 15.4, single mice, MEAN=b373, read-out: Tumor/Plasma Ratio
# [8] = tumor/plasma, dose 24.8, single mice, read-out: Tumor/Plasma Ratio
# [9] = tumor/plasma, dose 40, single mice, read-out: Tumor/Plasma Ratio
# [10] = tumor/plasma, dose 60.5, single mice, read-out: Tumor/Plasma Ratio
smiles,measurement,setting,value
"CC(=O)O[C@H]1C(=O)[C@]23C[C@H]2C[C@H]2OC[C@@]2(OC(C)=O)[C@H]3[C@H](OC(=O)c2ccccc2)[C@]2(O)C[C@H](OC(=O)[C@H](O)[C@@H](NC(=O)OC(C)(C)C)c3ccccc3)C(C)=C1C2(C)C [Compound A, 4α,10β-diacetoxy-2α-benzoyloxy-5β,20-epoxy-1β-hydroxy-7β,8β-methylene-9-oxo-19-nor-11-taxen-13α-yl (2R,3S)-3-tert-butoxycarbonylamino-2-hydroxy-3-phenylpropionate]",Kp at 1 h,[1],2.17
same,Kp at 14 h,[1],2.56
same,half-life,"liver, 40 mg/kg, 40 mg/kg i.v., read-out: half-life of the distribution phase, liver (converted)",17.4 min
same,half-life,"liver, 40 mg/kg, read-out: t 1/2, Liver (converted)",186 min
same,Tmax,"liver, 40 mg/kg i.v., read-out: time of maximum concentration, liver",4.98 min
same,Kp at 0.033 h,[2],1.54
same,Kp at 0.083 h,[2],3.07
same,Kp at 0.25 h,[2],1.79
same,Kp at 1 h,[2],1.71
same,Kp at 4 h,[2],0.93
same,Kp at 14 h,"liver/plasma, 40 mg/kg, mice with tumors, single mouse, read-out: Tissue/Plasma Ratio, LIVER",1.62
same,half-life,"lung, 40 mg/kg, 40 mg/kg i.v., read-out: half-life of the distribution phase, lung (converted)",20.4 min
same,half-life,"lung, 40 mg/kg, read-out: t 1/2, Lung (converted)",174 min
same,Tmax,"lung, 40 mg/kg i.v., read-out: time of maximum concentration, lung",4.98 min
same,Kp at 0.033 h,[3],0.33
same,Kp at 0.083 h,[3],0.79
same,Kp at 0.25 h,[3],0.95
same,Kp at 0.5 h,[3],1.27
same,Kp at 1 h,[3],1
same,Kp at 4 h,[3],1.43
same,Kp at 14 h,[3],0.81
same,half-life,"spleen, 40 mg/kg, 40 mg/kg i.v., read-out: half-life of the distribution phase, spleen (converted)",13.8 min
same,half-life,"spleen, 40 mg/kg, read-out: t 1/2, Spleen (converted)",450 min
same,Tmax,"spleen, 40 mg/kg i.v., read-out: time of maximum concentration, spleen",4.98 min
same,Kp at 0.033 h,[4],0.46
same,Kp at 0.25 h,[4],0.85
same,Kp at 0.5 h,[4],1.24
same,Kp at 1 h,[4],1.1
same,Kp at 4 h,[4],1.72
same,Kp at 14 h,[4],2.37
same,half-life,"tissues, 40 mg/kg, 40 mg/kg i.v., tissues other than brain, read-out: half-life in the other tissues",96 to 558 min
same,half-life,"tissues, 40 mg/kg, 40 mg/kg i.v., tissues tested except tumor and brain, read-out: elimination half-life, slower phase",96 to 450 min
same,half-life,"tumor, 40 mg/kg, read-out: t 1/2, Tumor (converted)",558 min
same,Tmax,"tumor, 40 mg/kg i.v., read-out: time of maximum concentration, tumor",15 min
same,Kp at 0.033 h,[5],0.2
same,Kp at 0.083 h,[5],0.37
same,Kp at 0.25 h,[5],0.58
same,Kp at 0.5 h,[5],0.78
same,Kp at 1 h,[5],0.95
same,Kp at 4 h,[5],1.8
same,Kp at 24 h,[5],2.79
same,Kp at 0.033 h,[6],0.24
same,Kp at 0.25 h,[6],0.51
same,Kp at 0.75 h,[6],0.94
same,Kp at 1 h,[6],2.02
same,Kp at 4 h,[6],3.45
same,Kp at 0.033 h,[7],0.23
same,Kp at 0.083 h,[7],0.28
same,Kp at 0.25 h,[7],0.6
same,Kp at 0.5 h,[7],0.97
same,Kp at 0.75 h,[7],1.75
same,Kp at 1 h,[7],1.83
same,Kp at 4 h,[7],1.9
same,Kp at 0.033 h,[8],0.13
same,Kp at 0.083 h,[8],0.28
same,Kp at 0.25 h,[8],0.71
same,Kp at 0.75 h,[8],1.14
same,Kp at 1 h,[8],1.29
same,Kp at 4 h,[8],1.61
same,Kp at 0.033 h,[9],0.2
same,Kp at 0.083 h,[9],0.37
same,Kp at 0.25 h,[9],0.58
same,Kp at 0.5 h,[9],0.78
same,Kp at 1 h,[9],0.95
same,Kp at 4 h,[9],1.8
same,Kp at 24 h,[9],2.79
same,Kp at 0.083 h,[10],0.19
same,Kp at 0.25 h,[10],0.39
same,Kp at 0.5 h,[10],0.62
same,Kp at 4 h,[10],2.48
same,Kp at 24 h,"tumor/plasma, dose 60.5, single mouse, read-out: Tumor/Plasma Ratio",13.3
same,"pharmacokinetics in mice with mammary tumors, linearity",range of doses administered,similarly linear
